SMILES strings stand for the structures. Read-outs that look alike come from different tables or passages of the source.

For orientation: inhibition means how much of the control response was suppressed.

The test system of one data set is sarcoma 180 cells. Kind of data set: Inhibition of intracellular phosphorylation of 5-FU in cancer cells. The format is cell-based, mouse. Particulars: for inhibition at 10 µM / inhibition at 100 µM: Mus musculus, Sarcoma-180, 0.5 h. As for the experimental part:
(§1) • (a) Test liquid preparation 1: Compound I-2 or I-10 of the present invention was dissolved to a concentration of 1 mM in cold physiological saline. The resulting product was further diluted 10-fold with physiological saline, yielding a 100-μM solution. • (b) Test liquid preparation 2: As an OPRT inhibitor, which inhibits the phosphorylation of 5-FU, citrazinic acid (Citra.A.) was dissolved to a concentration of 1 mM in cold physiological saline, and further diluted 10-fold with physiological saline, yielding a 100-μM solution. • (c) Preparation of cancer cell suspension: Ascites-type sarcoma 180 cells were preliminarily transplanted intraperitoneally into an ICR mouse and proliferated therein for use in the test as raw (intact) cells. The proliferated cells were isolated and then washed with physiological saline. […] Immediately after the completion of the reaction, 4 mL of a cold Hanks solution was added to the reaction solution, and the cells were washed and separated by centrifugation. After this procedure was repeated twice, 2 mL of a cold 5% trichloroacetic acid (TCA) solution was added to the cell pellet to disrupt the cells, and 5-FU and its nucleotide metabolites were extracted. Subsequently, a portion of the nucleic acid extract was applied to a silica gel 60F254 plate and developed with a mixed liquid comprising chloroform-methanol-acetic acid (17:3:1) to isolate the nucleotide moiety. The radioactivity thereof was measured and the concentration of 5-FU phosphorylation was measured.
as §1, with “1: Compounds I-9, I-11, I-12, and I-13” for “1: Compound I-2 or I-10”, “invention were separately” for “invention was”, “saline. Each of the” for “saline. The”, “resulting products” for “resulting product”, “acid” for “acid (Citra.A.)”

Data set [1] has as its system human gastric cancer strain (SC-2). Particulars: 14 days, day 15, Test Example 6. As for the experimental part:
The resulting product was stirred with a stirrer at room temperature for about 10 minutes. […] Thereafter, ultrasonic treatment was performed under ice cooling for about 5 minutes, thereby obtaining a BOF-A2 drug liquid to be used at a dose of 14 mg/kg/day, 21 mg/kg/day, or 28 mg/kg/day. • (f) Experiment: The human gastric cancer strain (SC-2) was subcutaneously transplanted into the back of a BALB/cA-nu mouse and preliminarily proliferated therein. The proliferated strain was extracted, cut into about 2 mm square pieces with scissors in physiological saline, and subcutaneously inoculated to the right axillary region of mice of the same strain, 5 to 6 weeks of age, using a transplantation needle. […] Then, drug administration was initiated from the next day. Each of the test liquids shown in (a) to (e) above was administered orally to the mice in each of the test drug groups using a sonde for oral administration at a dose of 0.1 ml per 10 g body weight once a day for 14 continuous days. In the same manner as the above, the cancer-bearing mice in the control group were subjected to oral administration of only 0.5% HPMC liquid for 14 continuous days.
The tumor volume of each mouse in each group before the initiation of the treatment, on day 3, day 5, day 8 (1 week after), day 11, and day 15 (2 weeks after), i.e., after termination of the administration, was calculated using Equation 1 below, and respective relative tumor volume (RTV) relative to the tumor volume at the time of initiation of the treatment was calculated. In relation to the antitumor effect, the average value of the tumor proliferation inhibition ratio (IR; %) was calculated from the average tumor volume of each treatment group on day 15 (after termination of the treatment) relative to that of the control group on day 15, using Equation 2. […] Along therewith, a weight change ratio was calculated from the body weight of the mice at the time of the termination of the drug administration relative to the body weight of the mice at the time of the initiation of the administration, using Equation 3. […] Tumor volume(mm^3)=(major axis)×(minor axis)^2×½ Equation 1: Tumor proliferation inhibition ratio(IR, %)=[1−(average tumor volume of treatment group)/(average tumor volume of control group)]×100 Equation 2: Average weight change ratio(%)=[(average weight on Day 15)−(average weight on Day 1)]/(average weight on Day 1)×100 Equation 3: […]
The resulting product was stirred with a stirrer at room temperature for about 10 minutes. […] The proliferated strain was extracted, cut into about 2 mm square pieces with scissors in physiological saline, and subcutaneously inoculated to the right axillary region of mice of the same strain, 5 to 6 weeks of age, using a transplantation needle. […] Then, drug administration was initiated from the next day. Each of the test liquids shown in (a) to (c) above was administered orally to the mice in each of the test drug groups using a sonde for oral administration at a dose of 0.1 ml per 10 g body weight once a day for 14 continuous days. In the same manner as the above, the cancer-bearing mice in the control group were subjected to oral administration of only 0.5% HPMC liquid for 14 continuous days.
The tumor volume of each mouse in each group before the initiation of the treatment, on day 3, day 5, day 8 (1 week after), day 11, and day 15 (2 weeks after), i.e., after termination of the administration, was calculated using Equation 1 below, and respective relative tumor volume (RTV) relative to the tumor volume at the time of initiation of the treatment was calculated. In relation to the antitumor effect, the average value of the tumor proliferation inhibition ratio (IR; %) was calculated from the average tumor volume of each treatment group on day 15 (after termination of the treatment) relative to that of the control group on day 15, using Equation 2.

With `CCOCn1cc(F)c(=O)n(C(=O)c2cccc(C(=O)Oc3cc(OC(=O)c4cc(OC(=O)CC)nc(OC(=O)CC)c4)c(Cl)cn3)c2)c1=O` [Compound I-11, 3-{3-[4-(2,6-dipropionyloxyisonicotinoyloxy)-5-chloro-2-pyridyloxycarbonyl]benzoyl}-1-ethoxymethyl-5-fluorouracil], the “RNA Fraction” value turned out to be 40.71 pmol/1 × 10^7 cells with sarcoma 180 cells (Conc. 10 μM, 30 min. Incubation, 5-FU 2 μM, Table 6) and 27.62 pmol/1 × 10^7 cells with sarcoma 180 cells (Conc. 100 μM, 30 min. Incubation, 5-FU 2 μM, Table 6). For the same compound, the inhibition at 10 µM is 35.7% in the data set with sarcoma 180 cells (Conc. 10 μM, 30 min. Incubation, 5-FU 2 μM, Table 6, read-out: Inhibition (%) of phosphorylation of 5-FU) and 35 to 57% in the data set on sarcoma 180 cells (concentration of 10 μM, reaction for 30 minutes, read-out: percent inhibition of intracellular phosphorylation of 5-FU). The inhibition at 100 µM was 56.4% with sarcoma 180 cells (Conc. 100 μM, 30 min. Incubation, 5-FU 2 μM, Table 6, read-out: Inhibition (%) of phosphorylation of 5-FU) and 56 to 63% in the data set on sarcoma 180 cells (concentration of 100 μM, reaction for 30 minutes, read-out: percent inhibition of intracellular phosphorylation of 5-FU). Further, the “BWC (% initial)” value is “+1.68 % initial” in data set [1] (26.7 mg/kg oral), “+1.82 % initial” in data set [1] (35.6 mg/kg oral) and −3.94 % initial in data set [1] (44.5 mg/kg oral). Also, the “IR (%)” value in data set [1] (26.7 mg/kg oral, equivalent to 7.5 mg/kg of S-1) was found to be 17.0%; in data set [1] (35.6 mg/kg oral, equivalent to 10 mg/kg of S-1), 32.0%; in data set [1] (44.5 mg/kg oral, equivalent to 12.5 mg/kg of S-1), 47.3%.

Values taken from patent US8889699B2, “5-fluorouracil derivative” (Delta-Fly Pharma, Inc., priority 2009, dated 2014).
